Experimental data reported in ChEMBL document CHEMBL1156493, “Histone deacetylase inhibitors suppress TF-kappaB-dependent agonist-driven tissue factor expression in endothelial cells and monocytes” (J Biol Chem, 2007).
Activity calls are given as the source filed them. The rule behind the calls is not given here.

Assays:
[1] = target: Tissue factor (Homo sapiens) (UniProt P13726); experiment: Inhibition of TNF-alpha-induced tissue factor activity in HUVEC at 10 uM preincubated for 4 hrs assessed after 4 hrs of TNFalpha challenge by one stage clotting assay; type: cell-based
Sequence of Tissue factor (Homo sapiens) (P13726 whole entry): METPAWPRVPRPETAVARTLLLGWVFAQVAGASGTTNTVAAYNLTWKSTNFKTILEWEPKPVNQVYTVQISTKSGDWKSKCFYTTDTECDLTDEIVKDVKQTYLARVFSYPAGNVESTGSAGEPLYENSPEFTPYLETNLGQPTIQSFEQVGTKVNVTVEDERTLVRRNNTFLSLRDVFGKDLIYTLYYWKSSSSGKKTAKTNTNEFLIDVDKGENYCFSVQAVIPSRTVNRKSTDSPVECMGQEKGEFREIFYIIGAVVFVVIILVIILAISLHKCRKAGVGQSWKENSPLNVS

[2] = target: Tissue factor (Homo sapiens) (UniProt P13726); experiment: Inhibition of LPS-induced tissue factor activity in HUVEC at 10 uM preincubated for 4 hrs assessed after 4 hrs of LPS challenge by one stage clotting assay; type: cell-based
[3] = target: Tissue factor (Homo sapiens) (UniProt P13726); experiment: Inhibition of TNF-alpha-induced tissue factor activity in HUVEC at 6 uM preincubated for 4 hrs assessed after 4 hrs of TNFalpha challenge by one stage clotting assay; type: cell-based
[4] = target: Tissue factor (Homo sapiens) (UniProt P13726); experiment: Inhibition of LPS-induced tissue factor activity in HUVEC at 6 uM preincubated for 4 hrs assessed after 4 hrs of LPS challenge by one stage clotting assay; type: cell-based
[5] = target: Tissue factor (Homo sapiens) (UniProt P13726); experiment: Inhibition of TNF-alpha-induced tissue factor activity in HUVEC at 30 uM preincubated for 4 hrs assessed after 4 hrs of TNFalpha challenge by one stage clotting assay
[6] = target: Tissue factor (Homo sapiens) (UniProt P13726); experiment: Inhibition of LPS-induced tissue factor activity in HUVEC at 30 uM preincubated for 4 hrs assessed after 4 hrs of LPS challenge by one stage clotting assay; type: cell-based
[7] = target: Tissue factor (Homo sapiens) (UniProt P13726); conditions: HUVEC, 1 uM
Description: Inhibition of LPS-induced tissue factor activity in HUVEC at 1 uM preincubated for 4 hrs assessed after 4 hrs of LPS challenge by one stage clotting assay

[8] = target: Tissue factor (Homo sapiens) (UniProt P13726); conditions: HUVEC, 3 uM
Description: Inhibition of TNF-alpha-induced tissue factor activity in HUVEC at 3 uM preincubated for 4 hrs assessed after 4 hrs of TNFalpha challenge by one stage clotting assay

[9] = target: Tissue factor (Homo sapiens) (UniProt P13726); experiment: Inhibition of LPS-induced tissue factor activity in HUVEC at 0.3 uM preincubated for 4 hrs assessed after 4 hrs of LPS challenge by one stage clotting assay
[10] = test system: HUVEC; experiment: Effect on TNF-alpha-induced NF-kappaB activation in HUVEC preincubated for 4 hrs assessed as increase in p65 level after 0.5 hrs of TNFalpha challenge by electrophoretic shift mobility assay; type: cell-based; conditions: Homo sapiens
[11] = test system: HUVEC; experiment: Effect on TNF-alpha-induced NF-kappaB activation in HUVEC preincubated for 4 hrs assessed as increase in c-Rel level after 0.5 hrs of TNFalpha challenge by electrophoretic shift mobility assay; type: cell-based; conditions: Homo sapiens
[12] = test system: HUVEC; experiment: Increase in acetylated histone H4 level in HUVEC preincubated for 4 hrs assessed after 0.5 hrs of TNFalpha challenge by Western blot; type: functional, cell-based; conditions: Homo sapiens
[13] = test system: HUVEC; experiment: Increase in acetylated histone H3 level in HUVEC preincubated for 4 hrs assessed after 0.5 hrs of TNFalpha challenge by Western blot; type: functional, cell-based; conditions: Homo sapiens
[14] = test system: HUVEC; experiment: Effect on TNF-alpha-induced IkappaB degradation in HUVEC at 1 uM preincubated for 4 hrs assessed after 60 mins of TNFalpha challenge by Western blotting; type: functional, cell-based; conditions: Homo sapiens
[15] = test system: HUVEC; experiment: Effect on TNF-alpha-induced TFkappaB activation assessed as p65/c-Rel binding to TFkappaB in HUVEC preincubated for 4 hrs measured after 0.5 hrs of TNFalpha challenge by electrophoretic shift mobility assay; type: cell-based; conditions: Homo sapiens
[16] = test system: HUVEC; experiment: Effect on TNF-alpha-induced TFkappaB activation assessed as p65/p50 binding to TFkappaB in HUVEC preincubated for 4 hrs measured after 0.5 hrs of TNFalpha challenge by electrophoretic shift mobility assay; type: cell-based; conditions: Homo sapiens
[17] = target: T1, Tissue factor (Mus musculus) (UniProt P20352); experiment: Inhibition of LPS-induced tissue factor activity in C57BL/6J mouse macrophages preincubated for 4 hrs assessed after 5 hrs of LPS challenge by one stage clotting assay; conditions: concentration not given here
T1 sequence (whole entry): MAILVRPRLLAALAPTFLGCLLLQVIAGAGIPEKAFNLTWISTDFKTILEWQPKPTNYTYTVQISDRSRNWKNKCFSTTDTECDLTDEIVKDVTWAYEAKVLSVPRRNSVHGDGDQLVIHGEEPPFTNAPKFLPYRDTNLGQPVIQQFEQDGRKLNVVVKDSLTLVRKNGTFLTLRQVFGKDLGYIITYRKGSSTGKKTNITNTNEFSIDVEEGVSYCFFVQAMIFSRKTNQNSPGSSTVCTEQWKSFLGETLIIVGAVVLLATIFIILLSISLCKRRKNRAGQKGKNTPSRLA

[18] = target: T1, Tissue factor (Mus musculus); experiment: Inhibition of TNF-alpha-induced tissue factor activity in C57BL/6J mouse macrophages preincubated for 4 hrs assessed after 5 hrs of TNFalpha challenge by one stage clotting assay; conditions: concentration not given here
[19] = target: T1, Tissue factor (Mus musculus); experiment: Inhibition of IL-1-beta-induced tissue factor activity in C57BL/6J mouse macrophages preincubated for 4 hrs assessed after 5 hrs of IL1-beta challenge by one stage clotting assay; conditions: concentration not given here
[20] = test system: HUVEC; experiment: Reduction of ICAM1 mRNA level in TNF-alpha-stimulated HUVEC at 1 uM preincubated for 4 hrs assessed after 1 to 2 hrs of TNFalpha challenge by RT-PCR; type: functional, cell-based; conditions: Homo sapiens
[21] = target: T1, Tissue factor (Mus musculus); experiment: Inhibition of baseline tissue factor activity in non-stimulated C57BL/6J mouse macrophages after 4 hrs by one stage clotting assay; conditions: concentration not given here
[22] = test system: Mus musculus; experiment: Decrease in thioglycolate-induced tissue factor activity in C57BL/6J mouse macrophage at 1 mg/kg, ip preincubated for 4 hrs assessed after 5 hrs of thioglycolate challenge by one stage clotting assay; type: functional; parameters: scale not given: the % may be the effect or the level left; conditions: route intraperitoneal
[23] = test system: HUVEC; experiment: Reduction of tissue factor mRNA level in TNF-alpha-stimulated HUVEC at 1 uM preincubated for 4 hrs assessed after 1 to 2 hrs of TNFalpha challenge by RT-PCR; type: functional, cell-based; conditions: Homo sapiens
[24] = test system: HUVEC; experiment: Effect on TNF-alpha-induced NF-kappaB activation in HUVEC preincubated for 4 hrs assessed as increase in p50 level after 0.5 hrs of TNFalpha challenge by electrophoretic shift mobility assay; type: cell-based; conditions: Homo sapiens
[25] = test system: HUVEC; experiment: Effect on TNF-alpha-induced SP1 protein level in HUVEC preincubated for 4 hrs assessed after 0.5 hrs of TNFalpha challenge by Western blotting; type: functional, cell-based; conditions: Homo sapiens
[26] = test system: HUVEC; experiment: Effect on TNF-alpha-induced Egr1 protein level in HUVEC preincubated for 4 hrs assessed after 0.5 hrs of TNFalpha challenge by Western blotting; type: functional, cell-based; conditions: Homo sapiens
[27] = test system: HUVEC; experiment: Inhibition of TNF-alpha-induced p65 binding to TFkappaB in HUVEC preincubated for 4 hrs assessed after 0.5 hrs of TNFalpha challenge by chromatin immunoprecipitation assay; type: cell-based; conditions: Homo sapiens
[28] = test system: HUVEC; experiment: Inhibition of TNF-alpha-induced p65 binding to ICAM1 NF-kappaB in HUVEC preincubated for 4 hrs assessed after 0.5 hrs of TNFalpha challenge by chromatin immunoprecipitation assay; type: cell-based; conditions: Homo sapiens
[29] = test system: HUVEC; experiment: Effect on TNF-alpha-induced wild type NF-kappaB-dependent ICAM1 promoter expression in HUVEC preincubated for 4 hrs assessed after 6 hrs of TNFalpha challenge by luciferase reporter assay; type: cell-based; conditions: Homo sapiens
[30] = test system: HUVEC; experiment: Effect on LPS-induced wild type NF-kappaB-dependent ICAM1 promoter expression in HUVEC preincubated for 4 hrs assessed after 6 hrs of LPS challenge by luciferase reporter assay; type: cell-based; conditions: Homo sapiens
[31] = test system: HUVEC; experiment: Inhibition of LPS-induced wild type TFkappaB-dependent tissue factor promoter expression in HUVEC preincubated for 4 hrs assessed after 6 hrs of LPS challenge by luciferase reporter assay; type: cell-based; conditions: Homo sapiens
[32] = test system: HUVEC; experiment: Inhibition of TNFalpha induced wild type TFkappaB-dependent tissue factor promoter expression in HUVEC preincubated for 4 hrs assessed after 6 hrs of TNFalpha challenge by luciferase reporter assay; type: cell-based; conditions: Homo sapiens
[33] = test system: HUVEC; experiment: Induction of PMA-induced wild type TFkappaB-dependent tissue factor promoter expression in HUVEC at 100 nM preincubated for 4 hrs assessed after 6 hrs of PMA challenge by luciferase reporter assay; type: cell-based; conditions: Homo sapiens
[34] = test system: HUVEC; experiment: Induction of PMA-induced wild type NF-kappaB-dependent ICAM promoter expression in HUVEC preincubated for 4 hrs assessed after 6 hrs of PMA challenge by luciferase reporter assay relative to control; type: cell-based; conditions: Homo sapiens
[35] = test system: HUVEC; experiment: Inhibition of LPS-induced tissue factor protein expression in HUVEC preincubated for 4 hrs assessed after 4 hrs of LPS challenge by Western blotting; type: functional, cell-based; conditions: Homo sapiens
[36] = test system: HUVEC; experiment: Inhibition of TNF-alpha-induced tissue factor protein expression in HUVEC preincubated for 4 hrs assessed after 4 hrs of TNFalpha challenge by Western blotting; type: functional, cell-based; conditions: Homo sapiens
[37] = test system: HUVEC; experiment: Effect on TNF-alpha-induced NF-kappaB activation assessed as p65/p50 binding to NF-kappaB in HUVEC at 0.3 uM preincubated for 4 hrs measured after 0.5 hrs of TNFalpha challenge by electrophoretic shift mobility assay; type: cell-based; conditions: Homo sapiens
[38] = test system: HUVEC; experiment: Effect on TNF-alpha-induced NF-kappaB activation assessed as p65/p50 binding to NF-kappaB in HUVEC at 1 uM preincubated for 4 hrs measured after 0.5 hrs of TNFalpha challenge by electrophoretic shift mobility assay; type: cell-based; conditions: Homo sapiens
[39] = target: Tissue factor (Homo sapiens) (UniProt P13726); experiment: Inhibition of TNF-alpha-induced tissue factor activity in HUVEC at 1 uM preincubated for 4 hrs assessed after 4 hrs of TNFalpha challenge by one stage clotting assay; type: cell-based
[40] = test system: HUVEC; experiment: Inhibition of IL-1-beta-induced tissue factor protein expression in HUVEC preincubated for 4 hrs assessed after 4 hrs of IL1-beta challenge by Western blotting; type: functional, cell-based; conditions: Homo sapiens
[41] = test system: HUVEC; experiment: Inhibition of HOSCN-induced tissue factor protein expression in HUVEC preincubated for 4 hrs assessed after 4 hrs of HOSCN challenge by Western blotting; type: functional, cell-based; conditions: Homo sapiens

CCCC(=O)[O-].[Na+]
inhibition [1]: 90%
inhibition [2]: 95%

CCCC(CCC)C(=O)O
inhibition [3]: 81%
inhibition [4]: 93%

Nc1ccccc1NC(=O)c1ccc(CNC(=O)OCc2cccnc2)cc1
inhibition [5]: 85%
inhibition [6]: 92%

CCC(=O)CCCCC[C@@H]1NC(=O)[C@H]2CCCCN2C(=O)[C@H](C(C)CC)NC(=O)[C@H](Cc2cn(OC)c3ccccc23)NC1=O (single isomer, unassigned)
inhibition [7]: 80%
inhibition [8]: 85%

CC(/C=C/C(=O)NO)=C\[C@@H](C)C(=O)c1ccc(N(C)C)cc1 [TRICHOSTATIN]
inhibition [9]: 91%
Activity [10]: inactive
Activity [11]: inactive
Activity [12]: Active
Activity [13]: Active
Activity [14]: inactive
Activity [15]: Active
Activity [16]: Active
inhibition [17]: 60%
inhibition [18]: 60%
inhibition [19]: 60%
Activity [20]: inactive
inhibition [21]: 60%
Activity [22]: 50%
Activity [23]: Active
Activity [24]: inactive
Activity [25]: inactive
Activity [26]: inactive
Activity [27]: Active
Activity [28]: inactive
Activity [29]: inactive
Activity [30]: inactive
Activity [31]: Active
Activity [32]: Active
Activity [33]: 75%
Activity [34]: inactive
Activity [35]: Active
Activity [36]: Active
Activity [37]: inactive
Activity [38]: inactive
inhibition [39]: 95%
Activity [40]: Active
Activity [41]: Active
